pEC50: −log10 of the molar value. Where two headings read alike, the source gives them in different places.
Target: T1, F508delCFTR (Homo sapiens, UniProt P13569, DEL508-508)
T1 construct: expressed in transfected cells; host or cells: CFBE41o- human lung-derived epithelial cells (CFBE4lo-F508delCFTR-HRP), doxycycline-inducible
Test: Cell Surface Expression-Horse Radish Peroxidase (CSE-HRP) Assay;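 on Maximum % activity (with co-corrector): co-corrector and positive control are both the same reference corrector at 2 µM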;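 on Maximum % activity (without co-corrector): percent of the 2 µM on-plate positive control corrector response above DMSO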
Assay type: cell-based
Settings: CSE-HRP; for Maximum % activity (with co-corrector): with co-corrector (2 μM); for Maximum % activity (with co-corrector) / Emax: maximum at any tested concentration, normalized to on-plate positive control; for Emax: without co-corrector, read-out: Maximum % activity (without co-corrector)
Description: Cell Surface Expression-Horse Radish Peroxidase (CSE-HRP) Assay;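 on Maximum % activity (with co-corrector): co-corrector and positive control are both the same reference corrector at 2 µM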;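 on Maximum % activity (without co-corrector): percent of the 2 µM on-plate positive control corrector response above DMSO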
The development was achieved by expressing the F508delCFTR mutation along with a horseradish peroxidase (HRP) in the fourth exofacial loop, and then measuring the HRP activity using luminescence readout from these cells, CFBE4lo-F508delCFTR-HRP, that were incubated overnight with the test corrector compounds, either without or with the co-corrector. […] The test compounds were then added either without or with a co-corrector at the required concentrations and further incubated for 18-24 hours at 33° C. The highest concentration tested was 20 μM with an 8-point concentration response curve using a 3-fold dilution in both the test compound without or with the co-corrector. Three replicate plates were run to determine one EC50. All plates contained negative controls (dimethyl sulfoxide, DMSO) and positive control (2 μM of 3-[(2R,4R)-4-({[1-(2,2-difluoro-1,3-benzodioxol-5-yl)cyclopropyl]carbonyl}amino)-7-methoxy-3,4-dihydro-2H-chromen-2-yl]benzoic acid) as well as on-plate concentration response of the positive control. […] The raw counts from the experiment were analyzed using Accelrys® Assay Explorer v3.3.
1−[3*SDPositive Control+3*SDNegative Control/Absolute(MeanPositive Control−MeanNegative Control)]
wherein “SD” is standard deviation.
The % activity measured at each of the 8 test concentrations of the test compound added either without or with a co-corrector (2 μM of 3-[(2R,4R)-4-({[1-(2,2-difluoro-1,3-benzodioxol-5-yl)cyclopropyl]carbonyl}amino)-7-methoxy-3,4-dihydro-2H-chromen-2-yl]benzoic acid) was normalized to the on-plate positive control using the following formulae:
% activity(Test compound without co-corrector)=[(test compound without co-corrector response−DMSO response)/(positive control response−DMSO response)]*100
% activity(Test compound with co-corrector)=[(test compound with co-corrector response−DMSO response)/(positive control response−DMSO response)]*100
The maximum % activity achieved for the test compound either without or with a co-corrector at any tested concentration is presented in Table 4 along with the respective EC50's calculated using the following general sigmoidal curve with variable Hill slope equation (described as Model 42 in the Accelrys® Assay Explorer v3.3 software):
General sigmoidal curve with concentration, response, top, bottom, EC50 and Hill slope. This model describes a sigmoidal curve with an adjustable baseline, a. The equation can be used to fit curves where response is either increasing or decreasing with respect to the independent variable, “x”.
“x” is a concentration of drug under test. “y” is the response. “a” is the maximum response, and “d” is the minimum response “c” is the inflection point (EC50) for the curve. That is, “y” is halfway between the lower and upper asymptotes when x=c. “b” is the slope-factor or Hill coefficient. The sign of b is positive when the response increases with increasing dose and is negative when the response decreases with increasing dose (inhibition).

[1] = test compound without co-corrector, read-out: EC50 (without co-corrector)
[2] = with co-corrector (2 μM of 3-[(2R,4R)-4-({[1-(2,2-difluoro-1,3-benzodioxol-5-yl)cyclopropyl]carbonyl}amino)-7-methoxy-3,4-dihydro-2H-chromen-2-yl]benzoic acid), read-out: EC50 (with co-corrector)

T1 sequence (P13569 with tags, fused parts or gaps DEL508-508): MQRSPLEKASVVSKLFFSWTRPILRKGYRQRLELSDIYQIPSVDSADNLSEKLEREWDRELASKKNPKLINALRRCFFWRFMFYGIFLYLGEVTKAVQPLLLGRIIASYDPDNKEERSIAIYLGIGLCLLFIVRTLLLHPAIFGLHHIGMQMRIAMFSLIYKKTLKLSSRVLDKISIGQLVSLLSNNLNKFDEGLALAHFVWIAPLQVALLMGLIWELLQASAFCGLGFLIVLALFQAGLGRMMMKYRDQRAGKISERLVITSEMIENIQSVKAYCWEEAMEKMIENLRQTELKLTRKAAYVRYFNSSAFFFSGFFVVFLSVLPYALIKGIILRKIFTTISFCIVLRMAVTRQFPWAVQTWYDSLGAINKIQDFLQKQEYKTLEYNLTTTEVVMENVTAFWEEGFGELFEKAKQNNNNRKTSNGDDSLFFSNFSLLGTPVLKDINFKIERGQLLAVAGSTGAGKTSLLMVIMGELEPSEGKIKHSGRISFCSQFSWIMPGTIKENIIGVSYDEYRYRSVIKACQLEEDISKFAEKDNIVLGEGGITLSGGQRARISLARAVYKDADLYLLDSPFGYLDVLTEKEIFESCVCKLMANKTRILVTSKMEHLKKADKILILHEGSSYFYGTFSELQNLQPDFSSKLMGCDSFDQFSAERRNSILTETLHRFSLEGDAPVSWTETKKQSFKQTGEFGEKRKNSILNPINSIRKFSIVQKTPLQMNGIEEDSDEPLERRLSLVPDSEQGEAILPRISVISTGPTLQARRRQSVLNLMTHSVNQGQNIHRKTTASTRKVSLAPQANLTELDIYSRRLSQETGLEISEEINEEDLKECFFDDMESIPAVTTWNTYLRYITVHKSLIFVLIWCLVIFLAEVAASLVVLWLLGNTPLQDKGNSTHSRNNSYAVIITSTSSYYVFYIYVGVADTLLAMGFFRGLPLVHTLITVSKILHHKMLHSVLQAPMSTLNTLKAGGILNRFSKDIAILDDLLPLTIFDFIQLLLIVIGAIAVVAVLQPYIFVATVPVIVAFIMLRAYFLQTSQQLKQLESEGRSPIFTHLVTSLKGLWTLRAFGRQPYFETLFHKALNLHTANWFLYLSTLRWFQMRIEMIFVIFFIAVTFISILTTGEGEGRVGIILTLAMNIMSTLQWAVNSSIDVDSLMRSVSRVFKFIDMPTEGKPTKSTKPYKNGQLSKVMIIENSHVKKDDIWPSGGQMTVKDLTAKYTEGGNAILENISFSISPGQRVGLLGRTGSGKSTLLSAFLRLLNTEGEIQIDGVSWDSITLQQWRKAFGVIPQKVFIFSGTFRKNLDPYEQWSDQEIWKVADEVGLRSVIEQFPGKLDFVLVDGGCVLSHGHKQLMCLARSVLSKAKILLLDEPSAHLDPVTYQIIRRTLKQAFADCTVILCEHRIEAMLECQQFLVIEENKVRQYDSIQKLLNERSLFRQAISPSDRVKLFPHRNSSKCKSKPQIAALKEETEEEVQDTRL

Row | SMILES | pEC50 [1] | pEC50 [2] | Maximum % activity (with co-corrector) | Emax
1 | COc1cc(Cl)ccc1CN[C@@H]1[C@@H](C(C)(C)C)[C@H](C(=O)O)N(C(=O)[C@@H]2CCC[C@@H](OC)C2)[C@@H]1c1ccccc1 (racemic) [II-38] | 5.00 to 6.00 | 5.00 to 6.00 | +++ (≥350) | 100 to 200%
2 | COc1cc(F)ccc1CN[C@@H]1[C@@H](C(C)(C)C)[C@H](C(=O)O)N(C(=O)OC(C)C)[C@@H]1c1ccccc1 (racemic) [II-39] | 5.00 to 6.00 | 5.00 to 6.00 | +++ (≥350) | 100 to 200%
3 | COc1ccc(C)cc1CN[C@@H]1[C@@H](C(C)(C)C)[C@H](C(=O)O)N(C(=O)OC(C)C)[C@@H]1c1ccccc1 (racemic) [II-40] | 5.00 to 6.00 | 5.00 to 6.00 | +++ (≥350) | 100 to 200%
4 | COc1cc(OC(F)(F)F)ccc1CN[C@@H]1[C@@H](C(C)(C)C)[C@H](C(=O)O)N(C(=O)OC(C)C)[C@@H]1c1ccccc1 (racemic) [II-41] | 5.00 to 6.00 | 5.00 to 6.00 | +++ (≥350) | > 200%
5 | COc1ccc(F)cc1CN[C@@H]1[C@@H](C(C)(C)C)[C@H](C(=O)O)N(C(=O)OC(C)C)[C@@H]1c1ccccc1 (racemic) [II-42] | 5.00 to 6.00 | 5.00 to 6.00 | +++ (≥350) | 100 to 200%
6 | COc1ccc(C(C)(C)C)cc1CN[C@@H]1[C@@H](C(C)(C)C)[C@H](C(=O)O)N(C(=O)OC(C)C)[C@@H]1c1ccccc1 (racemic) [II-43] | 5.00 to 6.00 | 5.00 to 6.00 | +++ (≥350) | > 200%
7 | COc1ccc(C(C)C)cc1CN[C@@H]1[C@@H](C(C)(C)C)[C@H](C(=O)O)N(C(=O)OC(C)C)[C@@H]1c1ccccc1 (racemic) [II-44] | 5.00 to 6.00 | 5.00 to 6.00 | +++ (≥350) | > 200%
8 | COc1cc(Cl)ccc1CN[C@@H]1[C@@H](C(C)(C)C)[C@H](C(=O)O)N(C(=O)OC(C)C)[C@@H]1c1ccccc1 (racemic) [II-45] | 5.00 to 6.00 | 5.00 to 6.00 | +++ (≥350) | > 200%
9 | COc1ccccc1CN[C@@H]1[C@@H](C(C)(C)C)[C@H](C(=O)O)N(C(=O)OC(C)C)[C@@H]1c1ccccc1 (racemic) [II-46] | 5.00 to 6.00 | 5.00 to 6.00 | +++ (≥350) | 100 to 200%
10 | COc1cc(Cl)ccc1CN[C@H]1[C@H](C(C)(C)C)[C@@H](C(=O)O)N(C(=O)[C@H](OC)c2ccccc2)[C@H]1c1cccnc1N(C)C (racemic) [II-47] | 5.00 to 6.00 | 5.00 to 6.00 | +++ (≥350) | 100 to 200%
11 | COc1cc(C(F)(F)F)ccc1CN[C@H]1[C@H](C(C)(C)C)[C@@H](C(=O)O)N(C(=O)[C@H](OC)c2ccccc2)[C@H]1c1cccnc1N(C)C (racemic) [II-48] | 5.00 to 6.00 | 5.00 to 6.00 | +++ (≥350) | 100 to 200%
12 | COc1cc(C(F)(F)F)ccc1CN[C@@H]1[C@@H](C(C)(C)C)[C@H](C(=O)O)N(C(=O)[C@@H]2CCCCO2)[C@@H]1c1ccccc1 (racemic) [II-49] | 5.00 to 6.00 | 5.00 to 6.00 | +++ (≥350) | 100 to 200%
13 | COc1cc(C(F)(F)F)ccc1CN[C@@H]1[C@@H](C(C)(C)C)[C@H](C(=O)O)N(C(=O)C2CCCCC2)[C@@H]1c1cccnc1N(C)C (racemic) [II-51] | 5.00 to 6.00 | 5.00 to 6.00 | +++ (≥350) | 100 to 200%
14 | COc1ncc(C(F)(F)F)cc1CN[C@@H]1[C@@H](C(C)(C)C)[C@H](C(=O)O)N(C(=O)C2CCCCC2)[C@@H]1c1cccnc1N(C)C (racemic) [II-52] | 5.00 to 6.00 | 5.00 to 6.00 | +++ (≥350) | 100 to 200%
15 | Cc1cc(C(F)(F)F)cc(N[C@H]2[C@H](C(C)(C)C)[C@@H](C(=O)O)N(C(=O)C3CCCCC3)[C@H]2c2ccccn2)n1 (racemic) [II-53] | 5.00 to 6.00 | 5.00 to 6.00 | ++ (≥150 and <350) | < 100%
16 | Cc1cc(C(F)(F)F)cc(N[C@@H]2[C@@H](C(C)(C)C)[C@H](C(=O)O)N(C(=O)Cc3ccccc3)[C@@H]2c2ccccc2)n1 (racemic) [II-55] | < 5.00 | 5.00 to 6.00 | ++ (≥150 and <350) | < 100%
17 | COc1ccc(C(F)(F)F)cc1CN[C@@H]1[C@@H](C(C)(C)C)[C@H](C(=O)O)N(C(=O)OC(C)C)[C@@H]1c1ccccc1N(C)C (racemic) [II-56] | 5.00 to 6.00 | 5.00 to 6.00 | +++ (≥350) | 100 to 200%
18 | COc1cc(C(F)(F)F)ccc1CN[C@@H]1[C@@H](C(C)(C)C)[C@H](C(=O)O)N(C(=O)OC(C)C)[C@@H]1c1ccccc1N(C)C (racemic) [II-57] | 5.00 to 6.00 | 5.00 to 6.00 | +++ (≥350) | 100 to 200%
19 | COc1ccc(C(F)(F)F)cc1CN[C@H]1[C@H](C(C)(C)C)[C@@H](C(=O)O)N(C(=O)C2CCCO2)[C@H]1c1ccccc1 (mixture of isomers) [II-59] | 5.00 to 6.00 | 5.00 to 6.00 | +++ (≥350) | 100 to 200%
20 | COc1cc(C(F)(F)F)ccc1CN[C@H]1[C@H](C(C)(C)C)[C@@H](C(=O)O)N(C(=O)C2CCCO2)[C@H]1c1ccccc1 (mixture of isomers) [II-60] | 5.00 to 6.00 | 5.00 to 6.00 | +++ (≥350) | 100 to 200%
21 | COc1ccc(Cl)cc1CN[C@H]1[C@H](C(C)(C)C)[C@@H](C(=O)O)N(C(=O)C2CCCO2)[C@H]1c1ccccc1 (mixture of isomers) [II-61] | 5.00 to 6.00 | 5.00 to 6.00 | +++ (≥350) | 100 to 200%
22 | COc1ccc(C(F)(F)F)cc1CN[C@@H]1[C@@H](C(C)(C)C)[C@H](C(=O)O)N(C(=O)[C@@H](C)Oc2ccccc2)[C@@H]1c1ccccc1 (racemic) [II-66] | 5.00 to 6.00 | 5.00 to 6.00 | ++ (≥150 and <350) | < 100%
23 | COc1ccc(C(F)(F)F)cc1CN[C@@H]1[C@@H](C(C)(C)C)[C@H](C(=O)O)N(C(=O)C2CCC(F)(F)CC2)[C@@H]1c1ccccc1 (racemic) [II-68] | 5.00 to 6.00 | 5.00 to 6.00 | +++ (≥350) | < 100%
24 | COc1cc(C(F)(F)F)ccc1CN[C@@H]1[C@@H](C(C)(C)C)[C@H](C(=O)O)N(C(=O)C2CCC(F)(F)CC2)[C@@H]1c1ccccc1 (racemic) [II-69] | 5.00 to 6.00 | 5.00 to 6.00 | ++ (≥150 and <350) | < 100%
25 | COc1ccc(C(F)(F)F)cc1CN[C@@H]1[C@@H](C(C)(C)C)[C@H](C(=O)O)N(C(=O)C2CCC3(CC2)CC3)[C@@H]1c1ccccc1 (racemic) [II-70] | 5.00 to 6.00 | 5.00 to 6.00 | ++ (≥150 and <350) | < 100%
26 | COc1ccc(C#N)cc1CN[C@@H]1[C@@H](C(C)(C)C)[C@H](C(=O)O)N(C(=O)C2CCCCC2)[C@@H]1c1ccccc1 (racemic) [II-71] | 5.00 to 6.00 | 5.00 to 6.00 | ++ (≥150 and <350) | < 100%
27 | Cc1ccc(C(F)(F)F)cc1CN[C@@H]1[C@@H](C(C)(C)C)[C@H](C(=O)O)N(C(=O)C2CCCCC2)[C@@H]1c1ccccc1 (racemic) [II-72] | > 6.00 | 5.00 to 6.00 | ++ (≥150 and <350) | < 100%

— patent US20180099931A1 (AbbVie S.à.r.l., priority 2016, published 2018)
